As usually defined, the IC50 is the concentration that gives 50% inhibition.

Test [1] concerns human hepatocellular carcinoma cell HepG2 (NRAS-Q61K mutation). Put plainly: Cancer cell proliferation inhibition assay, HepG2. Type of test: cell-based. The following applies: 72 h incubation, Cell Titer Glo. An excerpt:
(§1) The inhibitory effects of the compounds of the present invention on cancer cell proliferation were further evaluated by testing the effects of the compounds of the present invention on the growth of cancer cells.
(§2) In this example, human melanoma cell A375 (BRAF-V600E mutation, purchased from the Cell Bank of the Chinese Academy of Sciences) and human hepatocellular carcinoma cell HepG2 (NRAS-Q61K mutation, purchased from ATCC, USA) were employed.
(§3) In this example, the test compounds at various concentrations (100000 nM, 30000 nM, 10000 nM, 3000 nM, 1000 nM, 300 nM, 100 nM, 30 nM, 10 nM) were added to the above cells, and the incubation was performed for 72 h. The inhibitory activity of the compounds was tested by measuring ATP in living cells using the Cell Titer Glo Kit (Promega).
(§4) The IC50 values of the compounds of the present invention for each tested cell were determined, and the test results are as follows: […]

Test [2] relates to human melanoma cell A375 (BRAF-V600E mutation). Put plainly: Cancer cell proliferation inhibition assay, A375. The following applies: A-375, 72 h incubation, Cell Titer Glo. In kind it is cell-based.
Source text: as §1, §2, §3, §4
In general terms: In ATP-based viability assays light output follows the ATP content of the culture.

Consider `Cc1ccc2c(Nc3ccc(Cl)c(CN(C)C)c3)nccc2c1NC(=O)c1cccc2c(N)ncnc12` [Compound 64, 4-amino-N-(1-((4-chloro-3-((dimethylamino)methyl)phenyl)amino)-6-methylisoquinolin-5-yl)quinazoline-8-carboxamide], for which the values for the IC50 in test [1] and in test [2] were 75.2 ± 6.9 nM and 70.3 ± 8.5 nM, respectively.

On to `Cc1ccc2c(Nc3cccc(Cl)c3F)nccc2c1NC(=O)c1cc(OCCN2CCOCC2)cc2c(N)ncnc12` [Compound 79, 4-amino-N-(1-((3-chloro-2-fluorophenyl)amino)-6-methylisoquinolin-5-yl)-6-(2-morpholinoethoxy)quinazoline-8-carboxamide], for which the concentration for half-maximal inhibition (IC50) was 145 ± 12.3 nM in test [1] and 72.2 ± 13 nM in test [2].

Compound `Cc1ccc2c(Nc3cc(F)c(F)c(F)c3F)nccc2c1NC(=O)c1cccc2c(N)ncnc12` [Compound 96, 4-amino-N-(6-methyl-1-((2,3,4,5-tetrafluorophenyl)amino)isoquinolin-5-yl)quinazoline-8-carboxamide] showed an IC50 in test [1] of 119 ± 29.3 nM.

For the compound `Cc1cc(C(=O)Nc2c(C)ccc3c(Nc4cccc(Cl)c4F)nccc23)c2ncnc(N)c2c1` [Compound 45, 4-amino-N-(1-((3-chloro-2-fluorophenyl)amino)-6-methylisoquinolin-5-yl)-6-methylquinazoline-8-carboxamide], the half-maximal inhibitory concentration (IC50) in test [1] is 64.3 ± 5.08 nM; in test [2], 74.2 ± 3.5 nM.

With `Cc1ccc(Nc2nccc3c(NC(=O)c4cccc5c(N)ncnc45)c(C)ccc23)cc1` [Compound 65, 4-amino-N-(6-methyl-1-(p-tolylamino)isoquinolin-5-yl)quinazoline-8-carboxamide], the half-inhibitory concentration (IC50) was 38.8 ± 3 nM in test [1] and 47.1 ± 9.4 nM in test [2].

`COc1ccc(Nc2nccc3c(NC(=O)c4cnc5c(N)ncnn45)c(C)ccc23)cc1Cl` [Compound 56, 4-amino-N-(1-((3-chloro-4-methoxyphenyl)amino)-6-methylisoquinolin-5-yl)imidazo[2,1-f][1,2,4]triazine-7-carboxamide]: the concentration for half-maximal inhibition (IC50) in test [1] is 22.2 ± 2.9 nM; in test [2] it was 67 ± 7.3 nM.

In test [1], `Cc1ccc2c(Nc3cccc(Cl)c3F)nccc2c1NC(=O)c1ccnc2c(N)ncnc12` [Compound 81, 4-amino-N-(1-((3-chloro-2-fluorophenyl)amino)-6-methylisoquinolin-5-yl)pyrido[3,2-d]pyrimidine-8-carboxamide] registered an IC50 of 222 ± 29.8 nM.

The compound `Cc1ccc2c(Nc3cc(F)ccc3F)nccc2c1NC(=O)c1cccc2c(N)ncnc12` [Compound 72, 4-amino-N-(1-((2,5-difluorophenyl)amino)-6-methylisoquinolin-5-yl)quinazoline-8-carboxamide] had an IC50 in test [1] of 64.3 ± 12.3 nM.

As to `Cc1ccc2c(Nc3ccc(Cl)c(F)c3F)nccc2c1NC(=O)c1cnc2c(N)ncnn12` [Compound 70, 4-amino-N-(1-((4-chloro-2,3-difluorophenyl)amino)-6-methylisoquinolin-5-yl)imidazo[2,1-f][1,2,4]triazine-7-carboxamide], the IC50 is 59.9 ± 6.8 nM in test [1] and 190 ± 23.8 nM in test [2].

For the compound `COc1ccc(Nc2nccc3c(NC(=O)c4cccc5c(N)ncnc45)c(C)ccc23)cc1` [Compound 57, 4-amino-N-(1-((4-methoxyphenyl)amino)-6-methylisoquinolin-5-yl)quinazoline-8-carboxamide], the IC50 was 24.3 ± 3.3 nM in test [1] and 66.1 ± 17 nM in test [2].

Take `Cc1ccc2c(Nc3cc(C#N)ccc3F)nccc2c1NC(=O)c1cccc2c(N)ncnc12` [Compound 80, 4-amino-N-(1-((5-cyano-2-fluorophenyl)amino)-6-methylisoquinolin-5-yl)quinazoline-8-carboxamide]: the IC50 in test [1] stood at 75.4 ± 6 nM; in test [2] it was 167 ± 8.47 nM.

With `COc1ccc(Nc2nccc3c(NC(=O)c4cnc5c(N)ncnn45)c(C)ccc23)c(F)c1` [Compound 61, 4-amino-N-(1-((2-fluoro-4-methoxyphenyl)amino)-6-methylisoquinolin-5-yl)imidazo[2,1-f][1,2,4]triazine-7-carboxamide], the IC50 in test [1] is 21.3 ± 4.88 nM; in test [2], 141 ± 4.88 nM.

As to `Cc1ccc2c(Nc3cccc(Cl)c3F)nccc2c1NC(=O)c1cn(C)c2c(N)ncnc12` [Compound 101, 4-amino-N-(1-((3-chloro-2-fluorophenyl)amino)-6-methylisoquinolin-5-yl)-5-methyl-5H-pyrrolo[3,2-d]pyrimidine-7-carboxamide], the IC50 in test [1] amounted to 81.1 ± 4.5 nM.

As for `Cc1ccc2c(Nc3cccc(Cl)c3F)nccc2c1NC(=O)c1cc(OCCO)cc2c(N)ncnc12` [Compound 86, 4-amino-N-(1-((3-chloro-2-fluorophenyl)amino)-6-methylisoquinolin-5-yl)-6-(2-hydroxyethoxy)quinazoline-8-carboxamide], the figures for the IC50 in test [1] and in test [2] were 48 ± 5.36 nM and 60.6 ± 2.8 nM, respectively.

In the case of `Cc1ccc2c(Nc3ccc(CN(C)C)c(C(F)(F)F)c3)nccc2c1NC(=O)c1cnc2c(N)ncnn12` [Compound 62, 4-amino-N-(1-((4-((dimethylamino)methyl)-3-(trifluoromethyl)phenyl)amino)-6-methylisoquinolin-5-yl)imidazo[2,1-f][1,2,4]triazine-7-carboxamide], the half-maximal inhibitory concentration (IC50) in test [1] is 82.2 ± 10.1 nM; in test [2] it was 49.1 ± 2.74 nM.

Regarding `Cc1ccc2c(Nc3cccc(Cl)c3F)nccc2c1NC(=O)c1nccc2c(N)ncnc12` [Compound 66, 4-amino-N-(1-((3-chloro-2-fluorophenyl)amino)-6-methylisoquinolin-5-yl)pyrido[3,4-d]pyrimidine-8-carboxamide], the values for the 50% inhibitory concentration (IC50) in test [1] and in test [2] were 46.1 ± 9.6 nM and 166 ± 6.1 nM, respectively.

For `CC(=O)c1ccc(Nc2nccc3c(NC(=O)c4cccc5c(N)ncnc45)c(C)ccc23)cc1` [Compound 63, N-(1-((4-acetylphenyl)amino)-6-methylisoquinolin-5-yl)-4-aminoquinazoline-8-carboxamide], the IC50 in test [1] was found to be 28.6 ± 2.7 nM; in test [2] it was 46.3 ± 1.79 nM.

In turn, `Cc1ccc2c(Nc3c(F)c(F)cc(F)c3F)nccc2c1NC(=O)c1cccc2c(N)ncnc12` [Compound 95, 4-amino-N-(6-methyl-1-((2,3,5,6-tetrafluorophenyl)amino)isoquinolin-5-yl)quinazoline-8-carboxamide] registered an IC50 in test [1] of 69 ± 18.9 nM.

For the compound `Cc1ccc2c(Nc3cccc(Cl)c3F)nccc2c1NC(=O)c1cc(N2CCN(C)CC2)cc2c(N)ncnc12` [Compound 54, 4-amino-N-(1-((3-chloro-2-fluorophenyl)amino)-6-methylisoquinolin-5-yl)-6-(4-methylpiperazin-1-yl)quinazoline-8-carboxamide], the IC50 stood at 95.6 ± 8.18 nM in test [1] and 108 ± 19.9 nM in test [2].

Consider `COc1ccc(F)c(Nc2nccc3c(NC(=O)c4cccc5c(N)ncnc45)c(C)ccc23)c1` [Compound 87, 4-amino-N-(1-((2-fluoro-5-methoxyphenyl)amino)-6-methylisoquinolin-5-yl)quinazoline-8-carboxamide], for which the IC50 stood at 37.7 ± 7.05 nM in test [1] and 56 ± 2.5 nM in test [2].

In the case of `Cc1ccc2c(Nc3ccc4c(c3)OCCO4)nccc2c1NC(=O)c1cccc2c(N)ncnc12` [Compound 77, 4-amino-N-(1-((2,3-dihydrobenzo[b][1,4]dioxin-6-yl)amino)-6-methylisoquinolin-5-yl)quinazoline-8-carboxamide], the concentration for half-maximal inhibition (IC50) was 51.4 ± 8.5 nM in test [1] and 31.6 ± 7.42 nM in test [2].

In the case of `Cc1ccc2c(Nc3ccc(C#N)cc3F)nccc2c1NC(=O)c1cccc2c(N)ncnc12` [Compound 78, 4-amino-N-(1-((4-cyano-2-fluorophenyl)amino)-6-methylisoquinolin-5-yl)quinazoline-8-carboxamide], the IC50 in test [1] is 56.4 ± 5.8 nM; in test [2], 63.5 ± 2.6 nM.

In test [1], `Cc1ccc2c(Nc3cccc(Cl)c3)nccc2c1NC(=O)c1cnc2c(N)ncnn12` [Compound 12, 4-amino-N-(1-((3-chlorophenyl)amino)-6-methylisoquinolin-5-yl)imidazo[2,1-f][1,2,4]triazine-7-carboxamide] gave a half-inhibitory concentration (IC50) of 13.9 ± 1.7 nM.

Turning to `Cc1ccc2c(C(O)c3ccccc3Cl)nccc2c1NC(=O)c1cccc2c(N)ncnc12` (centres unmarked) [Compound 24, 4-amino-N-(1-((2-chlorophenyl)(hydroxy)methyl)-6-methylisoquinolin-5-yl)quinazoline-8-carboxamide], the half-maximal inhibitory concentration (IC50) in test [2] amounted to 70.7 ± 6.15 nM.

`Cc1ccc2c(Nc3cccc(Cl)c3F)nccc2c1NC(=O)c1cncc2c(N)ncnc12` [Compound 69, 4-amino-N-(1-((3-chloro-2-fluorophenyl)amino)-6-methylisoquinolin-5-yl)pyrido[4,3-d]pyrimidine-8-carboxamide]: the concentration for half-maximal inhibition (IC50) in test [1] was 49.6 ± 9.7 nM; in test [2] it was 94.6 ± 4 nM.

On to `Cc1ccc2c(Nc3cccc(C#N)c3F)nccc2c1NC(=O)c1cccc2c(N)ncnc12` [Compound 83, 4-amino-N-(1-((3-cyano-2-fluorophenyl)amino)-6-methylisoquinolin-5-yl)quinazoline-8-carboxamide], for which the half-inhibitory concentration (IC50) in test [1] turned out to be 50.5 ± 8.48 nM; in test [2] it was 61.9 ± 6.7 nM.

Consider `Cc1ccc2c(Nc3ccc(Cl)cc3F)nccc2c1NC(=O)c1cnc2c(N)ncnn12` [Compound 55, 4-amino-N-(1-((4-chloro-2-fluorophenyl)amino)-6-methylisoquinolin-5-yl)imidazo[2,1-f][1,2,4]triazine-7-carboxamide], for which, in test [1], the midpoint of inhibition, the IC50, lay at 30.4 ± 4.3 nM.

Consider `Cc1ccc2c(Nc3cccc(OCCN4CCOCC4)c3F)nccc2c1NC(=O)c1cccc2c(N)ncnc12` [Compound 98, 4-amino-N-(1-((2-fluoro-3-(2-morpholinoethoxy)phenyl)amino)-6-methylisoquinolin-5-yl)quinazoline-8-carboxamide], for which the IC50 in test [1] was found to be 63.7 ± 4.4 nM.

The values above are taken from US20230312556A1, “ARYLAMIDE COMPOUND, PHARMACEUTICAL COMPOSITION COMPRISING SAME, AND PREPARATION METHOD THEREFOR AND USE THEREOF” (SICHUAN KELUN-BIOTECH BIOPHARMACEUTICAL CO., LTD., priority 2020, published 2023).
